Laboratory results taken from patent US9302999B2, “Substituted triazoles as herbicides” (E. I. DU PONT DE NEMOURS AND COMPANY, priority 2012, dated 2016).

Assays:
Format in all cases: in vivo
[1] = test system: dayflower, (VA) (Virginia dayflower, Commelina virginica); test: Test E pre-/postemergence: dayflower, (VA); settings: scale 0 to 100
Source text: (§1) Seeds of plant species selected from corn (Zea mays), soybean (Glycine max), velvetleaf (Abutilon theophrasti), lambsquarters (Chenopodium album), poinsettia, wild (wild poinsettia, Euphorbia heterophylla), pigweed, palmer (palmer pigweed, Amaranthus palmeri), waterhemp (common waterhemp, Amaranthus rudis), smartweed (ladysthumb smartweed, Polygonum persicaria), surinam grass (Brachiaria decumbens), crabgrass, large (large crabgrass, Digitaria sanguinalis), crabgrass, Brazil (Brazilian crabgrass, Digitaria horizontalis), panicum, fall (fall panicum, Panicum dichotomiflorum), foxtail, giant (giant foxtail, Setaria faberii), foxtail, green (green foxtail, Setaria viridis), goosegrass (Eleusine indica), johnsongrass (Sorghum halepense), ragweed (common ragweed, Ambrosia elation), barnyardgrass (Echinochloa crus-galli), sandbur (southern sandbur, Cenchrus echinatus), arrowleaf sida (Sida rhombifolia), ryegrass, Italian (Italian ryegrass, Lolium multiflorum), dayflower, (VA) (Virginia dayflower, Commelina virginica), field bindweed (Convolvulus arvensis), cocklebur (common cocklebur, Xanthium strumarium), morningglory (Ipomoea coccinea), nightshade (eastern black nightshade, Solanum ptycanthum), kochia (Kochia scoparia), nutsedge, yellow (yellow nutsedge, Cyperus esculentus) and beggarticks (hairy beggarticks, Bidens pilosa) were planted into a silt loam soil and treated preemergence with test chemicals formulated in a non-phytotoxic solvent mixture which included a surfactant. At the same time, plants selected from these crop and weed species were planted in pots containing a growing medium comprising spaghnum peat moss, vermiculite, wetting agent and starter nutrients and treated with postemergence applications of some of the test chemicals formulated in the same manner. Plants ranged in height from 2 to 18 cm for postemergence treatments (1- to 4-leaf stage).
(§2) Treated plants and controls were maintained in a greenhouse for 14 to 21 days, after which time all species were compared to controls and visually evaluated. Plant response ratings, summarized in Table E, are based on a scale of 0 to 100 where 0 is no effect and 100 is complete control. A dash (-) response means no test result.

[2] = test system: smallflower umbrella sedge (CYPDI, Cyperus difformis); test: Test G paddy, alone and in combination: smallflower umbrella sedge; settings: evaluated after 14 days
Procedure: (§3) Seeds of smallflower umbrella sedge (CYPDI, Cyperus difformis) and ducksalad (HETLI, Heteranthera limosa) were sown on the soil surface in two separate quadrants of 11 cm tubs filled with steam pasteurized Tama soil. Simultaneously, plantings of barnyardgrass (ECHCG, Echinochloa crus-galli) and japonica rice (ORYSP, Oryza sativa) were established in separate “plug” flats. Plants were grown in a greenhouse using supplemental lighting to maintain a photoperiod of approximately 16 h; daytime and nighttime temperatures were approximately 27-30° C. and 19-22° C., respectively. After 8 days, barnyardgrass plants were transplanted to one of the remaining quadrants of the tub, and the water level was adjusted to a final depth of 3 cm. Herbicide application timing was targeted at the 2.0 to 2.5 leaf stage and the plants were treated with test chemicals formulated in a non-phytotoxic solvent. Treated plants and controls were maintained in a greenhouse for 14 days, after which time all species were compared to controls and visually evaluated. Plant response ratings are summarized in Tables G1 through G3, and are based on a scale of 0 to 100 where 0 is no effect and 100 is complete control. A dash (-) response means no test result.

[3] = test system: ducksalad (HETLI, Heteranthera limosa); test: Test G paddy, alone and in combination: ducksalad; settings: evaluated after 14 days
Procedure: as §3

[4] = test system: morningglory (Ipomoea coccinea); test: Test E pre-/postemergence: morningglory; settings: Preemergence, scale 0 to 100
Source text: as §1, §2

[5] = test system: waterhemp_RES1 (ALS/Triazine resistant common waterhemp, Amaranthus rudis); test: Test F postemergence: waterhemp_RES1; settings: scale 0 to 100
Source text: (§4) Seeds of plant species selected from corn (Zea mays), soybean (Glycine max), velvetleaf (Abutilon theophrasti), lambsquarters (Chenopodium album), poinsettia, wild (wild poinsettia, Euphorbia heterophylla), pigweed, palmer (palmer pigweed, Amaranthus palmeri), waterhemp (common waterhemp, Amaranthus rudis), surinam grass (Brachiaria decumbens), crabgrass, Brazil (Brazilian crabgrass, Digitaria horizontalis), panicum, fall (fall panicum Panicum dichotomiflorum), crabgrass, large (large crabgrass, Digitaria sanguinalis), foxtail, giant (giant foxtail, Setaria faberii), foxtail, green (green foxtail Setaria viridis), goosegrass (Eleusine indica), ragweed (common ragweed, Ambrosia elatior), barnyardgrass (Echinochloa crus-galli), sandbur (southern sandbur, Cenchrus echinatus), arrowleaf sida (Sida rhombifolia), ryegrass, Italian (Italian ryegrass, Lolium multiflorum), dayflower, VA (Virginia (VA) dayflower, Commelina virginica), field bindweed (Convolvulus arvensis), cocklebur (common cocklebur, Xanthium strumarium), morningglory (Ipomoea coccinea), nightshade (eastern black nightshade, Solanum ptycanthum), kochia (Kochia scoparia), nutsedge, yellow (yellow nutsedge, Cyperus esculentus), johnsongrass (Sorghum halepense), smartweed (ladysthumb smartweed, Polygonum persicaria), and beggarticks (hairy beggarticks, Bidens pilosa), were planted into a silt loam soil and treated preemergence with test chemicals formulated in a non-phytotoxic solvent mixture which included a surfactant. At the same time, plants selected from these crop and weed species and also pigweed (Amaranthus retroflexus), waterhemp_RES1 (ALS/Triazine resistant common waterhemp, Amaranthus rudis) and waterhemp_RES2 (ALS/HPPD resistant common waterhemp, Amaranthus rudis) were planted in pots containing a planting medium comprising spaghnum peat moss, vermiculite, wetting agent and starter nutrients treated with postemergence applications of some of the test chemicals formulated in the same manner. Plants ranged in height from 2 to 18 cm for postemergence treatments (1- to 4-leaf stage).
as §2

[6] = test system: waterhemp_RES2 (ALS/HPPD resistant common waterhemp, Amaranthus rudis); test: Test F postemergence: waterhemp_RES2; settings: scale 0 to 100
Source text: as §4, §2

Waterhemp = test: Test C preemergence: waterhemp; settings: scale 0 (no effect) to 100 (complete control)

## Cc1nn(-c2ccc(F)cc2)nc1Cc1ccnc(C(F)(F)F)c1 [Compound 16, 4-[[2-(4-fluorophenyl)-5-methyl-2H-1,2,3-triazol-4-yl]methyl]-2-(trifluoromethyl)pyridine]
[1]; Preemergence, 8 g ai/ha
  Plant response rating: Dayflower, VA: 0
[1]; Preemergence, 16 g ai/ha
  Plant response rating: Dayflower, VA: 0
[1]; Preemergence, 31 g ai/ha
  Plant response rating: Dayflower, VA: 35
[1]; Preemergence, 62 g ai/ha
  Plant response rating: Dayflower, VA: 50
[1]; Preemergence, 125 g ai/ha
  Plant response rating: Dayflower, VA: 85
[2]; Rate 8 g/ha
  CYPDI plant response rating (scale of 0 to 100): 85
[2]; Rate 16 g/ha
  CYPDI plant response rating (scale of 0 to 100): 85
[3]; Rate 8 g/ha
  HETLI plant response rating (scale of 0 to 100): 0
[3]; Rate 16 g/ha
  HETLI plant response rating (scale of 0 to 100): 60

## Cc1nn(-c2ccc(C(F)(F)F)cc2)nc1Cc1ccnc(C(F)(F)F)c1 [Compound 47, 4-[[5-methyl-2-[4-(trifluoromethyl)phenyl]-2H-1,2,3-triazol-4-yl]methyl]-2-(trifluoromethyl)pyridine]
[1]; Postemergence, 250 g ai/ha
  Plant response rating: Dayflower, VA: 30
[1]; Postemergence, 16 g ai/ha
  Plant response rating: Dayflower, VA: 10
[1]; Postemergence, 31 g ai/ha
  Plant response rating: Dayflower, VA: 10
[1]; Postemergence, 62 g ai/ha
  Plant response rating: Dayflower, VA: 20
[1]; Postemergence, 125 g ai/ha
  Plant response rating: Dayflower, VA: 25
[4]; 16 g ai/ha
  Plant response rating: Morningglory: 15
[4]; 31 g ai/ha
  Plant response rating: Morningglory: 30
[4]; 62 g ai/ha
  Plant response rating: Morningglory: 35
[4]; 125 g ai/ha
  Plant response rating: Morningglory: 40
[4]; 250 g ai/ha
  Plant response rating: Morningglory: 65

## Cc1nn(-c2ccc(F)cc2)nc1Oc1ccnc(C(F)(F)F)c1 [Compound 129, 4-[[2-(4-fluorophenyl)-5-methyl-2H-1,2,3-triazol-4-yl]oxy]-2-(trifluoromethyl)pyridine]
[4]; 8 g ai/ha
  Plant response rating: Morningglory: 0
[4]; 16 g ai/ha
  Plant response rating: Morningglory: 0
[4]; 31 g ai/ha
  Plant response rating: Morningglory: 0
[4]; 62 g ai/ha
  Plant response rating: Morningglory: 40
[4]; 125 g ai/ha
  Plant response rating: Morningglory: 50
[2]; Rate 16 g/ha
  CYPDI plant response rating (scale of 0 to 100): 0
[2]; Rate 31 g/ha
  CYPDI plant response rating (scale of 0 to 100): 75
[2]; Rate 32 g/ha
  CYPDI plant response rating (scale of 0 to 100): 48
[3]; Rate 16 g/ha
  HETLI plant response rating (scale of 0 to 100): 0
[3]; Rate 31 g/ha
  HETLI plant response rating (scale of 0 to 100): 40
[3]; Rate 32 g/ha
  HETLI plant response rating (scale of 0 to 100): 25

## Cc1nn(-c2ccc(F)c(F)c2)nc1Oc1ccnc(C(F)(F)F)c1 [Compound 145]
[5]; 125 g ai/ha
  Plant response rating, Waterhemp, Res1: 90
[6]; 125 g ai/ha
  Plant response rating, Waterhemp, Res2: 85

## Cc1nn(-c2ccc(C(F)(F)F)c(F)c2)nc1Cc1ccnc(C(F)(F)F)c1 [Compound 162]
[5]; 4 g ai/ha
  Plant response rating, Waterhemp, Res1: 70
[5]; 8 g ai/ha
  Plant response rating, Waterhemp, Res1: 90
[5]; 16 g ai/ha
  Plant response rating, Waterhemp, Res1: 90
[5]; 31 g ai/ha
  Plant response rating, Waterhemp, Res1: 95
[5]; 62 g ai/ha
  Plant response rating, Waterhemp, Res1: 95
[6]; 4 g ai/ha
  Plant response rating, Waterhemp, Res2: 75
[6]; 8 g ai/ha
  Plant response rating, Waterhemp, Res2: 90
[6]; 16 g ai/ha
  Plant response rating, Waterhemp, Res2: 90
[6]; 31 g ai/ha
  Plant response rating, Waterhemp, Res2: 95
[6]; 62 g ai/ha
  Plant response rating, Waterhemp, Res2: 100

## CCc1nn(-c2ccc(F)cc2)nc1Oc1ccnc(C(F)(F)F)c1 [Compound 166]
Waterhemp; 31 g ai/ha
  Plant response rating, Waterhemp: 55

## CCOc1nn(-c2ccc(Br)cc2)nc1Cc1ccnc(C(F)(F)F)c1 [Compound 189]
Waterhemp; 16 g ai/ha
  Plant response rating, Waterhemp: 90
Waterhemp; 31 g ai/ha
  Plant response rating, Waterhemp: 98
